Measurements as given in paper PMC5128008, “Antimicrobial activity and stability of the D-amino acid substituted derivatives of antimicrobial peptide polybia-MPI” (AMB Express, 2016).
Converted amounts (≈) assume the structure as drawn. Where a SMILES comes first, the peptide text is derived from it. Where no end group is shown, it is not given here. [ ]: non-standard residue; d: D form.

What was measured:
[1] = test system: Bacillus subtilis (ATCC 23857); test: MIC, broth microdilution; assay type: cell-based; details: Mueller–Hinton broth, 2 × 10^4 cfu/ml, peptide 1 to 256 µM, 18 h, 37 °C, visible turbidity, triplicate
Experimental: (§1) The minimal inhibitory concentration (MIC) of the peptides was measured in triplicate by the standard broth microdilution method (Peterson et al. [1980]; Wang et al. [2012]). In brief, bacteria/fungi were cultured overnight to mid-logarithmic-phase in Mueller–Hinton broth (MHB)/Sabouraud dextrose broth. The cultures were diluted to a final concentration of 2 × 10^4 cfu/ml in fresh Mueller–Hinton broth (MHB)/Sabouraud dextrose broth. Each well of 96-well propylene microtitre plates was filled with 100 µl cell suspension and 100 μl peptide solution of twofold diluted serially. And the final concentrations of peptide mixtures ranged from 1 to 256 µM. Controls were done without peptides. After 18 h of incubation at 37 °C (bacteria)/35 °C (fungi), the minimal inhibitory concentration (MIC) of the peptides was evaluated by visible turbidity in each well.

[2] = test system: Candida albicans ATCC (ATCC 14053); test: MIC, broth microdilution; assay type: cell-based; details: Candida albicans (ATCC 14053), Sabouraud dextrose broth, 2 × 10^4 cfu/ml, peptide 1 to 256 µM, 18 h, 35 °C, visible turbidity, triplicate
Experimental: as §1

[3] = test system: Candida glabrata ATCC (ATCC 2001); test: MIC, broth microdilution; assay type: cell-based; details: Candida glabrata (ATCC 2001), Sabouraud dextrose broth, 2 × 10^4 cfu/ml, peptide 1 to 256 µM, 18 h, 35 °C, visible turbidity, triplicate
Experimental: as §1

[4] = test system: Candida krusei (ATCC 6258); test: MIC, broth microdilution; assay type: cell-based; details: Sabouraud dextrose broth, 2 × 10^4 cfu/ml, peptide 1 to 256 µM, 18 h, 35 °C, visible turbidity, triplicate
Experimental: as §1

[5] = test system: Candida parapsilosis (ATCC 22019); test: MIC, broth microdilution; assay type: cell-based; details: Sabouraud dextrose broth, 2 × 10^4 cfu/ml, peptide 1 to 256 µM, 18 h, 35 °C, visible turbidity, triplicate
Experimental: as §1

[6] = test system: Candida tropicalis (ATCC 750); test: MIC, broth microdilution; assay type: cell-based; details: Sabouraud dextrose broth, 2 × 10^4 cfu/ml, peptide 1 to 256 µM, 18 h, 35 °C, visible turbidity, triplicate
Experimental: as §1

[7] = test system: E. coli (ATCC 2592); test: MIC, broth microdilution; assay type: cell-based; details: Mueller–Hinton broth, 2 × 10^4 cfu/ml, peptide 1 to 256 µM, 18 h, 37 °C, visible turbidity, triplicate
Experimental: as §1

[8] = test system: E. coli (ML-35) (ATCC 43827); test: MIC, broth microdilution; assay type: cell-based; details: Mueller–Hinton broth, 2 × 10^4 cfu/ml, peptide 1 to 256 µM, 18 h, 37 °C, visible turbidity, triplicate
Experimental: as §1

[9] = test system: Pseudomonas aeruginosa (ATCC 27853); test: MIC, broth microdilution; assay type: cell-based; details: Mueller–Hinton broth, 2 × 10^4 cfu/ml, peptide 1 to 256 µM, 18 h, 37 °C, visible turbidity, triplicate
Experimental: as §1

[10] = test system: Staphylococcus aureus (ATCC 29213); test: MIC, broth microdilution; assay type: cell-based; details: Mueller–Hinton broth, 2 × 10^4 cfu/ml, peptide 1 to 256 µM, 18 h, 37 °C, visible turbidity, triplicate
Experimental: as §1

[11] = test system: Staphylococcus epidermidis (ATCC 12228); test: MIC, broth microdilution; assay type: cell-based; details: Mueller–Hinton broth, 2 × 10^4 cfu/ml, peptide 1 to 256 µM, 18 h, 37 °C, visible turbidity, triplicate
Experimental: as §1

[12] = test system: sakazakii (ATCC 29544); test: MIC, broth microdilution; assay type: cell-based; details: Mueller–Hinton broth, 2 × 10^4 cfu/ml, peptide 1 to 256 µM, 18 h, 37 °C, visible turbidity, triplicate
Experimental: as §1

[13] = test system: Bacillus subtilis (ATCC23857); test: MBC, plating after MIC incubation; assay type: cell-based; details: 50 µl aliquots from MIC wells onto agar plates, overnight 37 °C, lowest concentration reducing CFUs at least 99.9%
Experimental: as §1
(§2) The minimal bactericidal concentrations (MBCs) and minimum fungicidal concentration (MFCs) of the peptides was determined at the end of the incubation period by transferring 50 µl aliquots onto agar plates and incubated overnight at 37 °C/35 °C. The MBC/MFC was set as the lowest concentration of the number of CFUs that reduced at least 99.9%.

[14] = test system: E. coli (ATCC2592); test: MBC, plating after MIC incubation; assay type: cell-based; details: 50 µl aliquots from MIC wells onto agar plates, overnight 37 °C, lowest concentration reducing CFUs at least 99.9%
Experimental: as §1, §2

[15] = test system: E. coli (ML-35) (ATCC43827); test: MBC, plating after MIC incubation; assay type: cell-based; details: 50 µl aliquots from MIC wells onto agar plates, overnight 37 °C, lowest concentration reducing CFUs at least 99.9%
Experimental: as §1, §2

[16] = test system: Pseudomonas aeruginosa (ATCC27853); test: MBC, plating after MIC incubation; assay type: cell-based; details: 50 µl aliquots from MIC wells onto agar plates, overnight 37 °C, lowest concentration reducing CFUs at least 99.9%
Experimental: as §1, §2

[17] = test system: Staphylococcus aureus (ATCC29213); test: MBC, plating after MIC incubation; assay type: cell-based; details: 50 µl aliquots from MIC wells onto agar plates, overnight 37 °C, lowest concentration reducing CFUs at least 99.9%
Experimental: as §1, §2

[18] = test system: Staphylococcus epidermidis (ATCC 12228); test: MBC, plating after MIC incubation; assay type: cell-based; details: 50 µl aliquots from MIC wells onto agar plates, overnight 37 °C, lowest concentration reducing CFUs at least 99.9%
Experimental: as §1, §2

[19] = test system: sakazakii (ATCC 29544); test: MBC, plating after MIC incubation; assay type: cell-based; details: 50 µl aliquots from MIC wells onto agar plates, overnight 37 °C, lowest concentration reducing CFUs at least 99.9%
Experimental: as §1, §2

[20] = test system: C. albicans (ATCC 14053); test: MFC, plating after MIC incubation; assay type: cell-based; details: 50 µl aliquots from MIC wells onto agar plates, overnight 35 °C, lowest concentration reducing CFUs at least 99.9%
Experimental: as §1, §2

[21] = test system: C. glabrata (ATCC 2001); test: MFC, plating after MIC incubation; assay type: cell-based; details: 50 µl aliquots from MIC wells onto agar plates, overnight 35 °C, lowest concentration reducing CFUs at least 99.9%
Experimental: as §1, §2

[22] = test system: C. krusei (ATCC 6258); test: MFC, plating after MIC incubation; assay type: cell-based; details: 50 µl aliquots from MIC wells onto agar plates, overnight 35 °C, lowest concentration reducing CFUs at least 99.9%
Experimental: as §1, §2

[23] = test system: C. parapsilosis (ATCC 22019); test: MFC, plating after MIC incubation; assay type: cell-based; details: 50 µl aliquots from MIC wells onto agar plates, overnight 35 °C, lowest concentration reducing CFUs at least 99.9%
Experimental: as §1, §2

[24] = test system: C.tropicalis (ATCC 750); test: MFC, plating after MIC incubation; assay type: cell-based; details: 50 µl aliquots from MIC wells onto agar plates, overnight 35 °C, lowest concentration reducing CFUs at least 99.9%
Experimental: as §1, §2

[25] = test system: chymotrypsin; test: RP-HPLC analysis of stability to chymotrypsin; assay type: in vitro ADME; details: peptide 10 mM, chymotrypsin 0.2 mg/ml, 37 °C, 0 and 360 min, TFA/acetonitrile precipitation, Fig. 7
Experimental: The stability of polybia-MPI and its analogues was assayed with trypsin or chymotrypsin in a volume ratio of 1:15 (peptide:trypsin) (Choi et al. [2013]; Hamamoto et al. [2002]; Molhoek et al. [2011]). Peptides at the concentration of 10 mM were incubated with trypsin or chymotrypsin (0.2 mg/ml) at 37 °C. 40 µl samples of the incubations were taken for the time of 0 and 360 min, respectively. Then, the samples were mixed with 80 µl of 15% trifluoroacetic acid (TFA) and 80 µl acetonitrile which incubated at 4 °C for at least 15 min to precipitate proteins. The supernatant was collected of each sample after centrifugation at 13,000 rpm for 10 min and were detected with reverse phase high performance liquid chromatography (RP-HPLC) analysis.
Fig. 7 HPLC analysis of the susceptibility of polybia-MPI, D-MPI and D-lys-MPI to trypsin and chymotrypsin. Peptides at the concentration of 10 mM were incubated with trypsin or chymotrypsin at 37 °C. At the determined time interval, samples were taken and mixed with trifluoroacetic acid (TFA) and acetonitrile to precipitate proteins, respectively. Then the samples were detected with reverse phase high performance liquid chromatography (RP-HPLC) analysis

[26] = test system: (ATCC 700603); details: ATCC 700603, 18 h

| Molecule | MIC [1] [µM] | MIC [2] [µM] | MIC [3] [µM] | MIC [4] [µM] | MIC [5] [µM] | MIC [6] [µM] | MIC [7] [µM] | MIC [8] [µM] | MIC [9] [µM] | MIC [10] [µM] | MIC [11] [µM] | MIC [12] [µM] | MBC/MFC [13] [µM] | MBC/MFC [14] [µM] | MBC/MFC [15] [µM] | MBC/MFC [16] [µM] | MBC/MFC [17] [µM] | MBC/MFC [18] [µM] | MBC/MFC [19] [µM] | MBC/MFC [20] [µM] | also measured |
| --- | --- | --- | --- | --- | --- | --- | --- | --- | --- | --- | --- | --- | --- | --- | --- | --- | --- | --- | --- | --- | --- |
| CC[C@@H](C)[C@@H](N)C(=O)N[C@H](CC(=O)O)C(=O)N[C@H](Cc1c[nH]c2ccccc12)C(=O)N[C@H](CCCCN)C(=O)N[C@H](CCCCN)C(=O)N[C@H](CC(C)C)C(=O)N[C@H](CC(C)C)C(=O)N[C@H](CC(=O)O)C(=O)N[C@H](C)C(=O)N[C@H](C)C(=O)N[C@H](CCCCN)C(=O)N[C@H](CCC(N)=O)C(=O)N[C@@H](C(=O)N[C@H](CC(C)C)C(N)=O)[C@H](C)CC [D-MPI] (H-[dI][dD][dW][dK][dK][dL][dL][dD][dA][dA][dK][dQ][dI][dL]-NH2) | 8 (≈ 13.2 µg/mL) | 16 (≈ 26.5 µg/mL) | 16 (≈ 26.5 µg/mL) | 8 (≈ 13.2 µg/mL) | 32 (≈ 52.9 µg/mL) | 16 (≈ 26.5 µg/mL) | 16 (≈ 26.5 µg/mL) | 32 (≈ 52.9 µg/mL) | 64 (≈ 106 µg/mL) | 16 (≈ 26.5 µg/mL) | 16 (≈ 26.5 µg/mL) | 32 (≈ 52.9 µg/mL) | 8 (≈ 13.2 µg/mL) | 16 (≈ 26.5 µg/mL) | 64 (≈ 106 µg/mL) | 128 (≈ 212 µg/mL) | 64 (≈ 106 µg/mL) | 128 (≈ 212 µg/mL) | 64 (≈ 106 µg/mL) | 16 (≈ 26.5 µg/mL) | MBC/MFC [21]: 32 µM (≈ 52.9 µg/mL); MBC/MFC [22]: 8 µM (≈ 13.2 µg/mL); MBC/MFC [23]: 32 µM (≈ 52.9 µg/mL); MBC/MFC [24]: 16 µM (≈ 26.5 µg/mL); susceptibility to chymotrypsin by HPLC profile [25]: not or only partly degraded; MIC [26]: 64 µM (≈ 106 µg/mL) |
| CC[C@H](C)[C@H](N)C(=O)N[C@@H](CC(=O)O)C(=O)N[C@@H](Cc1c[nH]c2ccccc12)C(=O)N[C@H](CCCCN)C(=O)N[C@H](CCCCN)C(=O)N[C@@H](CC(C)C)C(=O)N[C@@H](CC(C)C)C(=O)N[C@@H](CC(=O)O)C(=O)N[C@@H](C)C(=O)N[C@@H](C)C(=O)N[C@H](CCCCN)C(=O)N[C@@H](CCC(N)=O)C(=O)N[C@H](C(=O)N[C@@H](CC(C)C)C(N)=O)[C@@H](C)CC [D-lys-MPI] (H-IDW[dK][dK]LLDAA[dK]QIL-NH2) | >256 | 256 (≈ 423 µg/mL) | 128 (≈ 212 µg/mL) | 128 (≈ 212 µg/mL) | >256 | 64 (≈ 106 µg/mL) | >256 | >256 | >256 | >256 | 256 (≈ 423 µg/mL) | >256 | >256 | >256 | >256 | >256 | >256 | >256 | >256 | >256 | MBC/MFC [21]: 256 µM (≈ 423 µg/mL); MBC/MFC [22]: 256 µM (≈ 423 µg/mL); MBC/MFC [23]: >256 µM; MBC/MFC [24]: 128 µM (≈ 212 µg/mL); susceptibility to chymotrypsin by HPLC profile [25]: not or only partly degraded; MIC [26]: >256 µM |
| IDWKKLLDAAKQIL-NH2 [Polybia-MPI] | 8 | 16 | 8 | 8 | 64 | 8 | 32 | 32 | 128 | 32 | 32 | 64 | 8 | 32 | 256 | >256 | 128 | 32 | 64 | 16 | MBC/MFC [21]: 32 µM; MBC/MFC [22]: 16 µM; MBC/MFC [23]: 128 µM; MBC/MFC [24]: 32 µM; susceptibility to chymotrypsin by HPLC profile [25]: susceptible; MIC [26]: 64 µM |
